Test results taken from the NIST ThermoML archive (doi:10.1021/acs.jced.9b00846).

Settings: Liquid, Vibrating tube method

CC(C)C(C)C(C)C [2,3,4-trimethylpentane]
Settings | mass density [kg/m3]
283.15 K, 130 kPa | 728.3
283.15 K, 4973 kPa | 732.2
283.15 K, 9993 kPa | 736
283.15 K, 14965 kPa | 739.6
283.15 K, 20000 kPa | 743
283.15 K, 25003 kPa | 746.3
283.15 K, 29990 kPa | 749.5
283.15 K, 35009 kPa | 752.5
283.15 K, 39961 kPa | 755.4
283.15 K, 45014 kPa | 758.3
283.15 K, 49986 kPa | 761
283.15 K, 54944 kPa | 763.6
283.15 K, 60030 kPa | 766.3
283.15 K, 65014 kPa | 768.8
288.15 K, 102 kPa | 724.3
288.15 K, 5015 kPa | 728.4
288.15 K, 9991 kPa | 732.3
288.15 K, 14975 kPa | 736
288.15 K, 20038 kPa | 739.6
288.15 K, 25021 kPa | 743
288.15 K, 29929 kPa | 746.1
288.15 K, 35037 kPa | 749.3
288.15 K, 40039 kPa | 752.3
288.15 K, 44998 kPa | 755.2
288.15 K, 49927 kPa | 757.9
288.15 K, 54967 kPa | 760.6
288.15 K, 59925 kPa | 763.2
288.15 K, 65032 kPa | 765.9
293.15 K, 111 kPa | 720.4
293.15 K, 5021 kPa | 724.6
293.15 K, 9998 kPa | 728.6
293.15 K, 14997 kPa | 732.4
293.15 K, 19997 kPa | 736.1
293.15 K, 25022 kPa | 739.6
293.15 K, 29930 kPa | 742.8
293.15 K, 34968 kPa | 746
293.15 K, 39974 kPa | 749.1
293.15 K, 45009 kPa | 752
293.15 K, 49965 kPa | 754.9
293.15 K, 54987 kPa | 757.6
293.15 K, 59945 kPa | 760.3
293.15 K, 65000 kPa | 762.9
298.15 K, 105 kPa | 716.2
298.15 K, 5072 kPa | 720.6
298.15 K, 9964 kPa | 724.7
298.15 K, 15013 kPa | 728.7
298.15 K, 20054 kPa | 732.5
298.15 K, 25008 kPa | 736
298.15 K, 29968 kPa | 739.4
298.15 K, 34937 kPa | 742.6
298.15 K, 40018 kPa | 745.8
298.15 K, 45064 kPa | 748.8
298.15 K, 50010 kPa | 751.7
298.15 K, 55015 kPa | 754.5
298.15 K, 59955 kPa | 757.2
298.15 K, 65024 kPa | 759.9
303.15 K, 100 kPa | 712
303.15 K, 4934 kPa | 716.5
303.15 K, 10038 kPa | 720.9
303.15 K, 14973 kPa | 724.9
303.15 K, 19957 kPa | 728.7
303.15 K, 25002 kPa | 732.4
303.15 K, 29980 kPa | 735.9
303.15 K, 34972 kPa | 739.3
303.15 K, 39972 kPa | 742.5
303.15 K, 44990 kPa | 745.6
303.15 K, 49984 kPa | 748.5
303.15 K, 54948 kPa | 751.4
303.15 K, 59951 kPa | 754.2
303.15 K, 65040 kPa | 756.9
308.15 K, 92 kPa | 707.8
308.15 K, 5051 kPa | 712.5
308.15 K, 9961 kPa | 716.8
308.15 K, 14959 kPa | 721
308.15 K, 20027 kPa | 725
308.15 K, 25025 kPa | 728.8
308.15 K, 29996 kPa | 732.4
308.15 K, 34959 kPa | 735.7
308.15 K, 40017 kPa | 739.1
308.15 K, 45023 kPa | 742.2
308.15 K, 49965 kPa | 745.2
308.15 K, 54977 kPa | 748.2
308.15 K, 60020 kPa | 751
308.15 K, 64995 kPa | 753.8
313.15 K, 99 kPa | 703.6
313.15 K, 4997 kPa | 708.5
313.15 K, 9998 kPa | 713.1
313.15 K, 15010 kPa | 717.4
313.15 K, 19994 kPa | 721.4
313.15 K, 25007 kPa | 725.3
313.15 K, 29995 kPa | 729
313.15 K, 35008 kPa | 732.4
313.15 K, 39993 kPa | 735.8
313.15 K, 45005 kPa | 739
313.15 K, 49990 kPa | 742.1
313.15 K, 55003 kPa | 745.1
313.15 K, 59996 kPa | 748
313.15 K, 64993 kPa | 750.8
318.15 K, 104 kPa | 699.5
318.15 K, 4961 kPa | 704.4
318.15 K, 10003 kPa | 709.2
318.15 K, 15026 kPa | 713.7
318.15 K, 19937 kPa | 717.8
318.15 K, 25012 kPa | 721.8
318.15 K, 29990 kPa | 725.5
318.15 K, 34991 kPa | 729.1
318.15 K, 39976 kPa | 732.5
318.15 K, 45028 kPa | 735.8
318.15 K, 49973 kPa | 739
318.15 K, 54916 kPa | 742
318.15 K, 59988 kPa | 744.9
318.15 K, 65015 kPa | 747.8
323.15 K, 111 kPa | 695.4
323.15 K, 5025 kPa | 700.6
323.15 K, 10013 kPa | 705.5
323.15 K, 14973 kPa | 710
323.15 K, 20028 kPa | 714.4
323.15 K, 25014 kPa | 718.4
323.15 K, 29976 kPa | 722.2
323.15 K, 34994 kPa | 725.9
323.15 K, 39992 kPa | 729.4
323.15 K, 45046 kPa | 732.8
323.15 K, 49980 kPa | 736
323.15 K, 54968 kPa | 739.1
323.15 K, 59988 kPa | 742.1
323.15 K, 65068 kPa | 745
328.15 K, 94 kPa | 691.3
328.15 K, 4971 kPa | 696.6
328.15 K, 9997 kPa | 701.7
328.15 K, 14959 kPa | 706.4
328.15 K, 19969 kPa | 710.9
328.15 K, 25055 kPa | 715.1
328.15 K, 29960 kPa | 719
328.15 K, 34966 kPa | 722.7
328.15 K, 40013 kPa | 726.3
328.15 K, 45034 kPa | 729.8
328.15 K, 50015 kPa | 733.1
328.15 K, 54973 kPa | 736.2
328.15 K, 59955 kPa | 739.2
328.15 K, 64992 kPa | 742.2
333.15 K, 95 kPa | 687.1
333.15 K, 4934 kPa | 692.6
333.15 K, 9973 kPa | 697.9
333.15 K, 14973 kPa | 702.8
333.15 K, 19993 kPa | 707.4
333.15 K, 24959 kPa | 711.6
333.15 K, 29952 kPa | 715.7
333.15 K, 34974 kPa | 719.5
333.15 K, 39961 kPa | 723.2
333.15 K, 44999 kPa | 726.7
333.15 K, 49992 kPa | 730.1
333.15 K, 54798 kPa | 733.2
333.15 K, 59952 kPa | 736.4
333.15 K, 65050 kPa | 739.5
338.15 K, 115 kPa | 683.1
338.15 K, 4978 kPa | 688.9
338.15 K, 9970 kPa | 694.3
338.15 K, 14966 kPa | 699.3
338.15 K, 19960 kPa | 703.9
338.15 K, 24994 kPa | 708.4
338.15 K, 30030 kPa | 712.5
338.15 K, 34973 kPa | 716.3
338.15 K, 39979 kPa | 720
338.15 K, 45024 kPa | 723.6
338.15 K, 50019 kPa | 727.1
338.15 K, 54928 kPa | 730.3
338.15 K, 59953 kPa | 733.5
338.15 K, 64998 kPa | 736.6
343.15 K, 109 kPa | 678.8
343.15 K, 5084 kPa | 684.9
343.15 K, 9963 kPa | 690.4
343.15 K, 15039 kPa | 695.6
343.15 K, 20010 kPa | 700.4
343.15 K, 24998 kPa | 704.9
343.15 K, 30054 kPa | 709.2
343.15 K, 35048 kPa | 713.2
343.15 K, 40023 kPa | 717
343.15 K, 44967 kPa | 720.6
343.15 K, 50023 kPa | 724.2
343.15 K, 54967 kPa | 727.5
343.15 K, 59995 kPa | 730.7
343.15 K, 64954 kPa | 733.8
348.15 K, 112 kPa | 674.5
348.15 K, 5011 kPa | 680.8
348.15 K, 10066 kPa | 686.6
348.15 K, 14992 kPa | 691.9
348.15 K, 19955 kPa | 696.8
348.15 K, 25042 kPa | 701.5
348.15 K, 29986 kPa | 705.8
348.15 K, 35004 kPa | 709.9
348.15 K, 40002 kPa | 713.9
348.15 K, 44996 kPa | 717.6
348.15 K, 49994 kPa | 721.1
348.15 K, 54995 kPa | 724.6
348.15 K, 60005 kPa | 727.9
348.15 K, 65009 kPa | 731
353.15 K, 109 kPa | 670.1
353.15 K, 4963 kPa | 676.6
353.15 K, 9919 kPa | 682.5
353.15 K, 15039 kPa | 688.2
353.15 K, 19995 kPa | 693.2
353.15 K, 24983 kPa | 698
353.15 K, 29960 kPa | 702.4
353.15 K, 34985 kPa | 706.7
353.15 K, 39983 kPa | 710.7
353.15 K, 45037 kPa | 714.5
353.15 K, 49989 kPa | 718.1
353.15 K, 54953 kPa | 721.6
353.15 K, 59909 kPa | 724.9
353.15 K, 65052 kPa | 728.2
358.15 K, 118 kPa | 665.9
358.15 K, 4955 kPa | 672.5
358.15 K, 9916 kPa | 678.7
358.15 K, 15035 kPa | 684.5
358.15 K, 19946 kPa | 689.6
358.15 K, 25037 kPa | 694.6
358.15 K, 29963 kPa | 699.2
358.15 K, 35027 kPa | 703.4
358.15 K, 40010 kPa | 707.5
358.15 K, 44955 kPa | 711.4
358.15 K, 50023 kPa | 715.1
358.15 K, 54980 kPa | 718.7
358.15 K, 59952 kPa | 722
358.15 K, 65021 kPa | 725.4
363.15 K, 101 kPa | 661.3
363.15 K, 4941 kPa | 668.3
363.15 K, 9928 kPa | 674.7
363.15 K, 15005 kPa | 680.6
363.15 K, 19958 kPa | 686
363.15 K, 24923 kPa | 691
363.15 K, 29983 kPa | 695.8
363.15 K, 34922 kPa | 700.1
363.15 K, 39992 kPa | 704.4
363.15 K, 45038 kPa | 708.4
363.15 K, 49985 kPa | 712.2
363.15 K, 54981 kPa | 715.8
363.15 K, 59985 kPa | 719.3
363.15 K, 65038 kPa | 722.6
